Test results taken from EPA's ToxRefDB 2.

Experiments:
rat [1] = conditions: Prenatal developmental toxicity study, sprague dawley, Oral, Gavage/Intubation, dose end: 15 GD
dog [2] = conditions: Subchronic oral toxicity in nonrodent, beagle, Feed, dose end: 13 week, group: systemic
rat [3] = conditions: Prenatal developmental toxicity study, sprague dawley, Oral, Gavage/Intubation, dose end: 15 GD; remark: listed apart in the source
mouse [4] = conditions: Subchronic oral toxicity in rodents, b6c3f1, Feed, dose end: 90 day, group: systemic
rat [5] = conditions: Developmental neurotoxicity study; wistar; Oral; Gavage/Intubation; dose end: 90 PND; group: cannot be grouped; systemic / in life observation / clinical signs / poor maternal care + systemic / in life observation / clinical signs / grip strength + …
rabbit = conditions: Prenatal developmental toxicity study, new zealand white, Oral, Gavage/Intubation, dose end: 19 GD
dog [6] = conditions: Chronic toxicity, beagle, Oral, Feed, dose end: 52 week, group: systemic
rat [7] = conditions: Subchronic oral toxicity in rodents, fischer, Feed, dose end: 90 day, group: systemic, systemic / hematology / hematocrit (hct) / hematocrit (hct) + systemic / hematology / hemoglobin (hgb) / hemoglobin (hgb) + systemic / …
rat [8] = conditions: Prenatal developmental toxicity study, sprague dawley, Oral, Gavage/Intubation, dose end: 15 GD; remark: listed apart in the source
mouse [9] = conditions: Carcinogenicity, cd1, Oral, Feed, dose end: 18 month, group: systemic
[10] = group: developmental, developmental / developmental malformation / bone / incomplete ossification + developmental / developmental malformation / bone / …
[11] = group: maternal, systemic / organ weight / spleen / relative to brain weight + systemic / pathology microscopic / spleen / hematopoietic cell proliferation
[12] = group: maternal, systemic / organ weight / spleen / relative to brain weight + systemic / pathology microscopic / spleen / hematopoietic cell proliferation…
[13] = systemic / clinical chemistry / alkaline phosphatase (alp/alk) / alkaline phosphatase (alp/alk) + systemic / hematology / hematocrit (hct…
[14] = group: developmental, developmental / developmental malformation / bone / ossification sites + systemic / in life observation / body weight / fetal weight
[15] = group: developmental, developmental / developmental malformation / bone / ossification sites + systemic / in life observation / body weight / fetal weight + …
[16] = systemic / hematology / erythrocyte (rbc) count differential / erythrocyte (rbc) + systemic / hematology / hematocrit (hct) / hematocrit (…
[17] = group: developmental, systemic / in life observation / body weight / fetal weight
[18] = group: developmental, systemic / in life observation / body weight / fetal weight + developmental / developmental malformation / bone / fused + developmental / …
[19] = group: maternal, reproductive / reproductive performance / aborted / aborted + reproductive / reproductive performance / resorptions / resorptions + systemic…
[20] = systemic / hematology / microcytosis / microcytosis + systemic / clinical chemistry / albumin / albumin + systemic / clinical chemistry / …
[21] = group: maternal, reproductive / reproductive performance / postimplantation loss / postimplantation loss + reproductive / reproductive performance / …
[22] = systemic / pathology microscopic / adrenal gland / amyloid deposition + systemic / pathology microscopic / kidney / amyloid deposition + …

Question: Which results are given for `Cc1nn(-c2cc(NS(C)(=O)=O)c(Cl)cc2Cl)c(=O)n1C(F)F` [Sulfentrazone]?
Answer: LEL (rat [1]; [10]): 25 mg/kg/day; LOAEL (rat [1]; [10]): 25 mg/kg/day; NEL (rat [1]; [10]): 10 mg/kg/day; NOAEL (rat [1]; [10]): 10 mg/kg/day; LOAEL (rat [1]; [11]): 50 mg/kg/day; LEL (rat [1]; [12]): 50 mg/kg/day; NEL (rat [1]; [12]): 25 mg/kg/day; NOAEL (rat [1]; [12]): 25 mg/kg/day; LOAEL (dog [2]; [13]): 57 mg/kg/day; NEL (dog [2]; [13]): 10 mg/kg/day; NOAEL (dog [2]; [13]): 28 mg/kg/day; LEL (dog [2]; systemic / organ weight / liver / absolute): 28 mg/kg/day; LEL (rat [3]; [14]): 25 mg/kg/day; LOAEL (rat [3]; [14]): 25 mg/kg/day; NEL (rat [3]; [15]): 10 mg/kg/day; NOAEL (rat [3]; [15]): 10 mg/kg/day; LOAEL (rat [3]; [11]): 50 mg/kg/day; LEL (rat [3]; [12]): 50 mg/kg/day; NEL (rat [3]; [12]): 25 mg/kg/day; NOAEL (rat [3]; [12]): 25 mg/kg/day; LOAEL (mouse [4]; [16]): 108 mg/kg/day; NEL (mouse [4]; [16]): 17.8 mg/kg/day; NOAEL (mouse [4]; [16]): 60 mg/kg/day; LEL (mouse [4]; systemic / hematology / hematocrit (hct) / hematocrit (hct)): 60 mg/kg/day; LEL (rat [5]): 25 mg/kg/day; LOAEL (rat [5]): > 50 mg/kg/day; NEL (rat [5]): < 25 mg/kg/day; NOAEL (rat [5]): ≥ 50 mg/kg/day; LOAEL (rabbit; [17]): 375 mg/kg/day; LEL (rabbit; group: developmental, systemic / in life observation / body weight / fetal weight + developmental / developmental malformation / bone / fused): 250 mg/kg/day; NEL (rabbit; [18]): 100 mg/kg/day; NOAEL (rabbit; [18]): 250 mg/kg/day; LOAEL (rabbit; [19]): 375 mg/kg/day; NEL (rabbit; [19]): 100 mg/kg/day; NOAEL (rabbit; [19]): 250 mg/kg/day; LEL (rabbit; group: maternal, reproductive / reproductive performance / resorptions / resorptions + systemic / in life observation / body weight / body weight gain + …): 250 mg/kg/day; LOAEL (dog [6]; systemic / hematology / microcytosis / microcytosis): 61.2 mg/kg/day; NEL (dog [6]; [20]): 9.9 mg/kg/day; NOAEL (dog [6]; [20]): 24.9 mg/kg/day; LEL (dog [6]; systemic / pathology microscopic / gallbladder / pigmentation): 24.9 mg/kg/day; LOAEL (rat [7]): 65.8 mg/kg/day; NOAEL (rat [7]): 19.9 mg/kg/day; LEL (rat [8]; [17]): 50 mg/kg/day; LOAEL (rat [8]; [17]): > 50 mg/kg/day; NEL (rat [8]; [17]): 25 mg/kg/day; NOAEL (rat [8]; [17]): ≥ 50 mg/kg/day; LEL (rat [8]; [21]): 50 mg/kg/day; LOAEL (rat [8]; [21]): > 50 mg/kg/day; NEL (rat [8]; [21]): 25 mg/kg/day; NOAEL (rat [8]; [21]): ≥ 50 mg/kg/day; LOAEL (mouse [9]; systemic / hematology / hematocrit (hct) / hematocrit (hct) + systemic / hematology / hemoglobin (hgb) / hemoglobin (hgb)): 160 mg/kg/day; NOAEL (mouse [9]; systemic / hematology / hematocrit (hct) / hematocrit (hct) + systemic / hematology / hemoglobin (hgb) / hemoglobin (hgb) + systemic / …): 93.9 mg/kg/day; LEL (mouse [9]; [22]): 46.6 mg/kg/day; NEL (mouse [9]; [22]): < 46.6 mg/kg/day
